Experiments:
HeLa = assay: MTS proliferation assay, HeLa; type: cell-based, human; conditions: 72 h incubation, read-out: MTS proliferation assay IC 50 HeLa
Method in brief: (§1)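 A 72 h exposure to compound (final 0.3–10 μM, four levels) was followed by 3 h MTS incubation and an A492 read.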

Jurkat = assay: MTS proliferation assay, Jurkat; type: cell-based, human; conditions: 72 h incubation, read-out: MTS proliferation assay IC 50 Jurkat
Method in brief: as §1

HT1080 = assay: MTS proliferation assay, HT1080; type: cell-based, human; conditions: HT1080, 72 h incubation; read-out: MTS proliferation assay IC 50 HT1080
Experimental: (§2) Cell lines are cultured in RPMI-1640 tissue culture medium containing either 5% or 10% fetal calf serum, 0.05 mM 2-mercaptoethanol, 2 mM glutamine and penicillin/streptomycin 50 μg/ml (complete medium) (Sigma, Buchs, Switzerland). General growth conditions are 37° C. and 7.5% CO2.
The following human cell lines (either EGFP transfected or not) are being used: HeLa (ATCC: CCL-2), KB (ATCC: CCL-17), MCF7 (ATCC: HTB-22), SK-BR-3 (ATCC: HTB-30), SK-Mel 1 (ATCC: HTB-67), SK-Mel 28 (ATCC: HTB-72), PC-3 (ATCC: CRL-1435), SW 480 (ATCC: CCL-228), NCl-H460 (ATCC: HTB-177), NCl-H1792 (ATCC: CRL-5895), HT1080 (ATCC: CCL-21), Jurkat (ATCC: TIB-152), Ramos (ATCC: CRL-1596), Raji (ATCC: CCL-86), H9 (ATCC: HTB-176), Hut78 (ATCC: TIB-161), K562 (ATCC: CCL 243), HL-60 (ATCC: CCL 240), U-87MG (ATCC: HTB-14), HepG2 (ATCC: HB-8065), U-2 OS (ATCC: HTB-96), Saos-2 (ATCC: HTB-85), U937 (ATCC: CRL 1593), Hs 578T (ATCC: HTB 126), HBL-100 (ATCC: HTB 124), Molt-4 (ATCC: CRL 1582).
The assay is performed in 96 well tissue culture plates. The cells (range: 1.5*10^3-10^4) are seeded out in 80 μl complete medium 24 h prior to compound treatment. The test compounds are added in 20 μl complete medium containing max 5% DMSO. The final compound concentrations in the assays are 10 μM, 3 μM, 1 μM and 0.3 μM, respectively. The assay plates are incubated for 72 h at culture conditions. The MTS reagent is prepared according to the manufacturer's protocol (Promega G1111). 20 μl MTS reagent are added to each well, the assay plates are quickly spun and incubated for another 3 h at culture conditions. Subsequently, the plates are shortly shaked and absorption measured with a microplate-reader at 492 nm.

[1] = tested on: adherent cells or suspension cells; assay: Hoechst 33342 nuclear staining (fraction of apoptotic nuclei); type: cell-based; parameters: key: 0 relating to no activity; 1 relating to weak activity comprising less than 70% of the cells; score 2 relating to strong activity comprising more than 70% of the cells
Experimental: as §2
This assay is performed in 96 well tissue culture plates. Appropriate number of cells (adherent cells: 3-5*10^3, suspension cells: 8-10*10^3) are being seeded out in 80 μl complete medium. Adherent cells are incubated for 24 h for proper spreading out before addition of test compounds while suspension cells are immediately treated with test compounds after seeding out. The test compounds are added in 20 μl complete medium containing max 5% DMSO. […] After 24 h or 48 h incubation at culture conditions, 10 μl medium containing Hoechst 33342 dye (Sigma B-2261) at 2-5 μg/ml are added to each well. The assay plates are then further incubated for 30 minutes and subsequently analyzed with a standard inverted fluorescence microscope.
The readout allows the determination of the fraction of apoptotic nuclei as well as other morphological criteria specific for apoptosis as a function of the treatment. The following scores are used: 0 relating to no activity, 1 relating to weak activity comprising less than 70% of the cells and score 2 relating to strong activity comprising more than 70% of the cells.

MRC5 = assay: MTS proliferation assay, MRC5; type: cell-based; conditions: MRC5, 72 h incubation; read-out: MTS proliferation assay IC 50 MRC5
Method in brief: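 Proliferation is followed by MTS conversion, measured as absorbance at 492 nm. Cells are exposed for 72 h to four fixed compound concentrations (10 μM down to 0.3 μM) under 37° C, 7.5% CO2 culture conditions.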

| Compound | IC50 (HeLa) [µM] | IC50 (Jurkat) [µM] | Hoechst 33342 nuclear staining score ([1]; H460, conc 0.01 μm) | Hoechst 33342 nuclear staining score ([1]; H460, conc 0.1 μm) | Hoechst 33342 nuclear staining score ([1]; H460, conc 1 μm) | Hoechst 33342 nuclear staining score ([1]; HeLa, conc 0.01 μm) | Hoechst 33342 nuclear staining score ([1]; HeLa, conc 0.1 μm) | Hoechst 33342 nuclear staining score ([1]; HeLa, conc 1 μm) | Hoechst 33342 nuclear staining score ([1]; Jily, conc 0.01 μm) | Hoechst 33342 nuclear staining score ([1]; Jily, conc 0.1 μm) | Hoechst 33342 nuclear staining score ([1]; Jurkat, conc 0.01 μm) | Hoechst 33342 nuclear staining score ([1]; Jurkat, conc 0.1 μm) | Hoechst 33342 nuclear staining score ([1]; Jurkat, conc 1 μm) | Hoechst 33342 nuclear staining score ([1]; MRC5, conc 0.01 μm) | Hoechst 33342 nuclear staining score ([1]; MRC5, conc 0.1 μm) | Hoechst 33342 nuclear staining score ([1]; MRC5, conc 1 μm) | Hoechst 33342 nuclear staining score ([1]; PBLs, conc 0.01 μm) | Hoechst 33342 nuclear staining score ([1]; PBLs, conc 0.1 μm) | Hoechst 33342 nuclear staining score ([1]; PBLs, conc 1 μm) | IC50 (MRC5) [µM] | further results |
| --- | --- | --- | --- | --- | --- | --- | --- | --- | --- | --- | --- | --- | --- | --- | --- | --- | --- | --- | --- | --- | --- |
| COc1cc2nc(-c3nonc3N)n(CC(=O)c3ccccc3)c2cc1OC [Example 113] | > 1 | > 1 | 0 | 0 | 0 | 0 | 0 | 0 | 0 | 0 | 0 | 0 | 0 | 0 | 0 | 0 | 0 | 0 | 0 | > 1 | IC50 (HT1080): > 1 µM; Hoechst 33342 nuclear staining score ([1]; Jily, conc 1 μm): 0 |
| CC(=O)Nc1nonc1-c1nc2ccccc2n1CC(=O)c1ccccc1 [Example 40] | 0.1 to 1 | 0.1 to 1 | 0 | 0 | 0 | 0 | 0 | 0 | 0 | 0 | 0 | 0 | 0 | 0 | 0 | 0 | 0 | 0 | 0 | > 1 | Hoechst 33342 nuclear staining score ([1]; Jily, conc 1 μm): 1 (1 relating to weak activity comprising less than 70% of the cells) |
| CON=C(Cn1c(-c2nonc2N)nc2ccccc21)c1cccc(OC)c1 (mixture of isomers) [Example 25] | > 1 | 0.1 to 1 | 0 | 0 | 0 | 0 | 0 | 0 | 0 | 0 | 0 | 0 | 1 (1 relating to weak activity comprising less than 70% of the cells) | 0 | 0 | 0 | 0 | 0 | 0 | > 1 | Hoechst 33342 nuclear staining score ([1]; Jily, conc 1 μm): 0 |
| COc1cccc(C(=O)Cn2c(-c3nonc3N)nc3ccccc32)c1 [Example 23] | 0.1 to 1 | 0.1 to 1 | – | – | – | 0 | 0 | 2 (score 2 relating to strong activity comprising more than 70% of the cells) | – | – | 0 | 0 | 2 (score 2 relating to strong activity comprising more than 70% of the cells) | 0 | 0 | 0 | 0 | 0 | 0 | 0.1 to 1 | – |

Reference: patent publication USRE42890E1, “Furazanobenzimidazoles” (Basilea Pharmaceutica AG, priority 2003, dated 2011)
